Data from US20220160908A1, “CHELATORS AND METHODS OF MAKING AND USING SAME” (The University Of British Columbia, priority 2019, published 2022).
Read-outs that look alike come from different tables or passages of the source. Values belong to the compound of their own block, whether it stands above or below them.

Tests used:
[1] = Protonation constants by combined potentiometric-spectrophotometric titrations; assay type: physicochemical; details: 25° C., l = […] (NaCl)
Source text: The basicity of different ionizable and non-ionizable protons determine the extent of the competition between the metal ion and the protons to the binding sites of the chelator during metal complexation. Therefore, protonation constants must be considered when evaluating the chelator. […] The remaining four protonation constants were not determined as these sites deprotonated at a pH below the electrode threshold. As a result but without being bound by theory, during metal complexation which preferably occurs at or near physiological pH for pharmaceutical purposes, competition from those protonation processes would be negligible.
FIGS. 4A, 4B and 4C show the absorption bands of the species involved in the protonation equilibria mentioned above at different pH, while Table 2 presents the protonation constants calculated from the experimental data using the HypSpec2014^25 and Hyperquad2013^26 programs. The speciation plots of different species of H4py4pa in FIG. 4D were calculated from the protonation constants in Table 2 with Hyss software.^27
All potentiometric titrations were carried out with a Metrohm Titrando 809 and a Metrohm Dosino 800 with a Ross combined electrode. A 20 mL and 25° C. thermostated glass cell with an inlet-outlet tube for nitrogen gas (purified through a 10% NaOH solution to exclude any CO2 prior to and during the course of the titration) was used as a titration cell. The electrode was calibrated daily in hydrogen ion concentration by direct titration of HCl with freshly prepared NaOH solution and the results were analyzed with Gran procedure^29 in order to obtain the standard potential E° and the ionic product of water pKw at 25° C. and 0.16 M NaCl as a supporting electrolyte. Solutions were titrated with carbonate-free NaOH (0.16 M) that was standardized against freshly recrystallized potassium hydrogen phthalate.
In the study of complex formation equilibria, the determination of the stability constant of [La(H4py4pa)] species was carried out by two different methods. The first method used UV-Vis spectrophotometric measurements on a set of solutions containing 1:1 metal to ligand molar ratio ([H4py4pa]=[M]^3+˜1.33×10^−4 M) and different amounts of HCl in the spectral range 200-400 nm at 25° C. and 1 cm path length. The molar absorptivities of all the protonated species of H4py4pa calculated with HypSpec2014^25 from the protonation constant experiments were included in the calculations. […] The stability constants for the complexes formed by H4edta and La^3+ were taken from literature.^31 Direct pH-potentiometric titrations of the La^3+-H4py4pa system were also carried out. Metal solution was prepared by adding the atomic absorption (AA) standard metal ion solution to a H4py4pa solution of known concentration in the 1:1 metal to ligand molar ratio for La(III). Ligand and metal concentrations were in the range of 0.6-0.8×10^−4 M. The exact amount of acid present in the atomic standard metal solutions standards was determined by Gran's method^29 titrating equimolar solutions of La(III) and Na2H2-EDTA. […] Three replicates of each titration were performed for each system. Relying on the stability constant for the species La(Hpy4pa) obtained by the two different methods, the fitting of the direct potentiometric titrations was possible and yielding the stability constants in Table 3. All the potentiometric measurements were processed using the Hyperquad2013 software^26 while the obtained spectrophotometric data were processed with the HypSpec2014^25 program. Proton dissociation constants corresponding to hydrolysis of La(III) aqueous ion included in the calculations were taken from Baes and Mesmer.^32 The overall equilibrium (formation) constants log β referred to the overall equilibria: pM+qH+rL ⇄MpHqLr (the charges are omitted), where p might also be 0 in the case of protonation equilibria and q can be negative for hydroxide species. […]

[2] = Complex formation equilibria with La(III): stability constants and pM; assay type: physicochemical
[3] = cited from earlier work
[4] = ligand-ligand potentiometric competition with EDTA at l = […] (NaCl) and 25° C.
[5] = potentiometric titrations at l = […] (NaCl) and 25° C.

- log K, H2L^2− + H^+ ⇌ H3L^− (pK9) [1]: 4.06 (2)
- log K, H3L^− + H+ ⇌ H4L (pK8) [1]: 3.58 (2)
- log K, H4L + H^+ ⇌ H5L^+ (pK7) [1]: 2.71 (3)
- log K, H5L^+ + H^+ ⇌ H6L^2+ (pK6) [1]: 2.55 (4)
- log K, H6L^2+ + H^+ ⇌ H7L^3+ (pK5) [1]: 2.31 (4)
- log K, HL^3− + H^+ ⇌ H2L^2− (pK10) [1]: 6.07 (1)
- log K, L^4− + H^+ ⇌ HL^3− (pK11) [1]: 6.96 (1)
- log β, H2L^2− + H^+ ⇌ H3L^− [1]: 17.09 (2)
- log β, H3L^− + H+ ⇌ H4L [1]: 20.67 (2)
- log β, H4L + H^+ ⇌ H5L^+ [1]: 23.38 (3)
- log β, H5L^+ + H^+ ⇌ H6L^2+ [1]: 25.93 (4)
- log β, H6L^2+ + H^+ ⇌ H7L^3+ [1]: 28.24 (4)
- log β, HL^3− + H^+ ⇌ H2L^2− [1]: 13.03 (1)
- log β, L^4− + H^+ ⇌ HL^3− [1]: 6.96 (1)
- pM (La^3+) ([2]; -log [M]free at [L] = 10 μM, [M] = 1 μM and pH = 7.4): 21.0
- log K, ML + H^+ ⇌ MHL ([2]; in-batch acidic spectrophotometric competition at 25° C., not evaluated at constant l): 4.01(5)
- log K, M(OH)L + H^+ ⇌ ML [2, 4]: 9.94(3)
- log K, ML + H^+ ⇌ MHL [2, 4]: 3.78(4)
- log K, M^3+ + L ⇌ ML [2, 4]: 20.37(2)
- log K, M(OH)L + H^+ ⇌ ML [2, 5]: 9.96(4)
- log K, M^3+ + L ⇌ ML [2, 5]: 20.33(3)
Compound: O=C(O)c1cccc(CN(Cc2cccc(CN(Cc3cccc(C(=O)O)n3)Cc3cccc(C(=O)O)n3)n2)Cc2cccc(C(=O)O)n2)n1 [Compound H4py4pa]

Compound: O=C(O)CN1CCN(CC(=O)O)CCN(CC(=O)O)CCN(CC(=O)O)CC1 [DOTA, 1,4,7,10-tetraazacyclododecane-1,4,7,10-tetraacetic acid]
- log K[La(DOTA)] ([3]; 25° C.): 24.25
- pM (La^3+) ([3]; -log [M]free at [ligand]=10 μM, [M]=1 μM, pH=7.4): 19.2

Compound: O=C(O)c1cccc(CN2CCOCCOCCN(Cc3cccc(C(=O)O)n3)CCOCCOCC2)n1 [Compound H2macropa, N,N′-bis[(6-carboxy-2-pyridil)methyl]-4,13-diaza-18-crown-6]
- log K[La(macropa)] ([3]; 25° C., l=0.1 M (KCl)): 14.99
